The values below are quoted from earlier work in article PMC12308805, “Ultrahigh-Throughput Virtual Screening Strategies against PPI Targets: A Case Study of STAT Inhibitors” (Journal of Chemical Information and Modeling, 2025).

Square brackets hold non-standard residues; d marks the D form. Peptide text beside a SMILES is read from it. * marks the point of attachment. βNA = c1ccc2cc(N*)ccc2c1

The subject of one series is STAT3. To be noted: sheet 6QHD_actives_decoys; retrospective screening set for STAT3 SH2 domain (PDB 6QHD); […]; ref DUD-E; cited from earlier work.
For `NCCCC[C@H](NC(=O)[C@@H](CC(=O)O)NC(=O)[C@@H](CC(=O)O)NC(=O)[C@@H](CC(=O)O)NC(=O)[C@@H](CC(=O)O)NC(=O)CN)C(=O)Nc1ccc2ccccc2c1` [Decoy438] (H-G[dD][dD][dD][dD]K-βNA), the Type entry is given as “Inactive (Decoy)”.
For `Cc1ccc(NC(=O)CCC(=O)NNC(=O)CCCCC(=O)NNC(=O)CCC(=O)Nc2ccc(C)c(C)c2)cc1C` [Decoy444], the Type result is recorded as “Inactive (Decoy)”.
Take `O=C(NCCNc1ccc(C(F)(F)F)cc1[N+](=O)[O-])c1ccc(CSc2ncn[nH]2)cc1` [Decoy448]: the Type result is recorded as “Inactive (Decoy)”.
For the molecule `O=[N+]([O-])c1ccc(S(=O)(=O)Nc2cccc(NS(=O)(=O)c3ccc([N+](=O)[O-])cc3)c2)cc1` [Decoy459], the Type entry is given as “Inactive (Decoy)”.

Staying with this series, now noted: sheet 6QHD_actives_decoys; retrospective screening set for STAT3 SH2 domain (PDB 6QHD); decoys generated with DUD-E and presumed inactive, not tested; ref DUD-E; cited from earlier work.
As to `COc1cc(/C=N/NC(=O)CCCCC(=O)N/N=C/c2cc(Br)c(O)c(OC)c2)cc(Br)c1O` [Decoy433], the Type entry was “Inactive (Decoy)”.
With `CCCCCOc1ccc([C@H]2C(C(=O)c3ccc4c(c3)OCCO4)=C(O)C(=O)N2CCCN2CCOCC2)cc1OCC` [Decoy434], the Type entry is recorded as “Inactive (Decoy)”.
Take `COC(=O)c1ccc(NC(=O)CSc2nc3ccc(NC(=O)CSc4nnc(-c5ccc(N)cc5)n4C)cc3s2)cc1` [Decoy435]: the Type entry was “Inactive (Decoy)”.
Turning to `CCCC(=O)C1=C(N2CCN(C3=C(C(=O)CCC)C(O)=C(C(=O)OC)C(C)(C)C3)CC2)CC(C)(C)[C@H](C(=O)OC)C1=O` [Decoy436], the Type result was “Inactive (Decoy)”.
Turning to `CCOC(=O)c1c(NC(=O)CSc2n[nH]c(N/N=C/c3ccc(F)cc3)n2)sc2c1CCCC2` [Decoy437], the Type result was “Inactive (Decoy)”.
Take `Nn1c(N/N=C/c2c(O)ccc3ccccc23)nnc1SCCC(=O)Nc1ccc2c(c1)C(=O)NC2=O` [Decoy439]: the Type result is listed as “Inactive (Decoy)”.
As to `O=C(CCCCCNC(=O)CCCC[C@H]1SC[C@H]2NC(=O)N[C@@H]21)NC/C=C/c1cn([C@@H]2O[C@@H](CO[P@](=O)(O)O[P@](=O)(O)OP(=O)(O)O)[C@@H](O)[C@H]2O)c(=O)nc1O` [Decoy440], the Type result is “Inactive (Decoy)”.
As for `Nn1c(N/N=C/c2ccc([N+](=O)[O-])cc2)nnc1SCC(=O)Nc1ccc(OC(F)(F)F)cc1` [Decoy441], the Type entry is “Inactive (Decoy)”.
`CC(=O)O[C@H]1[C@@H](O)[C@H](CO)O[C@H](O[C@@H](C/N=C/c2c(O)ccc3ccccc23)[C@@H](CO)O[C@H](O)C/N=C/c2c(O)ccc3ccccc23)[C@@H]1O` [Decoy442]: the Type result is given as “Inactive (Decoy)”.
As for `CCCCCO[C@@H]1[C@H]2OC(C)(C)O[C@H]2O[C@@H]1[C@@H](O)CO[C@@H]1O[C@H](COC(C)=O)[C@@H](OC(C)=O)[C@H](OC(C)=O)[C@H]1NC(C)=O` [Decoy443], the Type result was “Inactive (Decoy)”.
With `CSc1ccc(S(=O)(=O)NCC(=O)OCC(=O)Nc2cccc3nsnc23)cc1[N+](=O)[O-]` [Decoy445], the Type entry is given as “Inactive (Decoy)”.
Consider `CCSc1ccccc1NC(=O)CSc1n[nH]c(N/N=C/c2cc([N+](=O)[O-])ccc2O)n1` [Decoy446], for which the Type result is on record as “Inactive (Decoy)”.
With `COCCN1C(=O)c2cc(C(=O)Nc3ccc(OC)c(OC)c3)ccc2[C@H]1Nc1ccc(OC)c(OC)c1` [Decoy447], the Type result was “Inactive (Decoy)”.
Take `CCOC(=O)c1c(NC(=O)CCSc2nnc(N/N=C/c3ccc(C)cc3)n2N)sc2c1CCCC2` [Decoy449]: the Type result is “Inactive (Decoy)”.
Take `CCCNC(=O)CN(C)C(=O)c1ccc(N2CCNCC2)c(NS(=O)(=O)c2ccc(CCC)cc2)c1` [Decoy450]: the Type result is listed as “Inactive (Decoy)”.
On to `Cc1cccn2c(=O)c(/C=C3\SC(=S)N(CCCCCC(=O)O)C3=O)c(NCCCn3ccnc3)nc12` [Decoy451], for which the Type entry was “Inactive (Decoy)”.
On to `CC[C@@H](c1nnnn1C(C)(C)CC)N(Cc1ccc(OC)cc1)Cc1cc2c(C)ccc(C)c2[nH]c1=O` [Decoy452], for which the Type result is reported as “Inactive (Decoy)”.
`CCN(CC)c1ccc(-n2nc3cc(C)c(NC(=S)NC(=O)c4ccc(OC)cc4OC)cc3n2)cc1` [Decoy453]: the Type entry is listed as “Inactive (Decoy)”.
In the case of `O=C(NCCCCCCNC(=O)OCCN[C@H]1CCS(=O)(=O)C1)OCCN[C@H]1CCS(=O)(=O)C1` [Decoy454], the Type entry is recorded as “Inactive (Decoy)”.
Regarding `CCOC(=O)c1[nH]c(C)c(C(=O)C2=C(O)C(=O)N(CCN(CC)CC)[C@H]2c2ccc(OC)c(OC)c2)c1C` [Decoy455], the Type entry is listed as “Inactive (Decoy)”.
Regarding `Cc1nn(Cc2ccc(Cl)cc2Cl)c(C)c1NC(=S)Nc1ccc(S(=O)(=O)Nc2ncccn2)cc1` [Decoy456], the Type result is “Inactive (Decoy)”.
Take `Cc1ccc(NC(=O)CN(C)C(=O)[C@H](C)OC(=O)CNC(=O)c2ccc(Cl)c([N+](=O)[O-])c2)cc1` [Decoy457]: the Type result is “Inactive (Decoy)”.
For the molecule `CC(=O)N[C@H]1[C@H](O[C@H]2[C@H](O[C@H](C)C(=O)O)[C@@H](NC(C)=O)[C@@H](OC(C)=O)O[C@@H]2COC(C)=O)O[C@H](COC(C)=O)[C@@H](OC(C)=O)[C@@H]1OC(C)=O` [Decoy458], the Type result is reported as “Inactive (Decoy)”.
Regarding `CCOc1ccc([C@@H]2c3c(-c4cc(Cl)c(C)cc4O)n[nH]c3C(=O)N2CCCOC)cc1OCC` [Decoy460], the Type entry is listed as “Inactive (Decoy)”.
In the case of `NCCCCCC(=O)OC[C@@H]1O[C@@H](Oc2ccc(-c3coc4cc(O)cc(O)c4c3=O)cc2)[C@@H](O)[C@H](O)[C@@H]1O` [Decoy461], the Type entry is “Inactive (Decoy)”.
As for `O=C(COCCN1CCN([C@@H](c2ccccc2)c2ccc(Cl)cc2)CC1)O[C@@H]1O[C@@H](CO)[C@@H](O[C@@H]2O[C@@H](CO)[C@H](O)[C@H](O)[C@H]2O)[C@H](O)[C@H]1O` [Decoy462], the Type entry is “Inactive (Decoy)”.
Turning to `CC(=O)O[C@H]1[C@@H](O)[C@@H](O[C@@H](/C=N/c2ccc3c(c2)C(=O)NC3=O)[C@@H](CO)O[C@H](O)/C=N/c2ccc3c(c2)C(=O)NC3=O)O[C@@H](CO)[C@H]1O` [Decoy463], the Type result is listed as “Inactive (Decoy)”.
Regarding `CCOC(=O)[C@@](NC(=O)c1cccc(Cl)c1)(Nc1ccc(S(=O)(=O)Nc2ccc(OC)nn2)cc1)C(F)(F)F` [Decoy464], the Type result is listed as “Inactive (Decoy)”.
With `CCn1nc(C)c(CCN(C)c2ncc(C(=O)O)cc2NS(=O)(=O)c2ccc(C(C)=O)cc2)c1C` [Decoy465], the Type result is reported as “Inactive (Decoy)”.
Take `CCc1nnc(NS(=O)(=O)c2ccc(NC(=O)c3ccc(S(=O)(=O)N(CCC#N)CCC#N)cc3)cc2)s1` [Decoy466]: the Type result is given as “Inactive (Decoy)”.
As for `CCCCC(=O)Nc1ccc(NC(=S)NC(=O)c2ccc(OCC)c([N+](=O)[O-])c2)cc1OC` [Decoy467], the Type entry is “Inactive (Decoy)”.
As for `COC(=O)[C@@H]1[C@H](NC(=O)[C@@H]2CCOC2)c2cc(NCC(C)(C)C)cnc2N1CCc1c[nH]c2ccccc12` [Decoy468], the Type result was “Inactive (Decoy)”.
As for `C[C@@H]1O[C@@H](O[C@H]2[C@H](O)C[C@H](O[C@H]3[C@H](O)C[C@H](O[C@H]4CC[C@@]5(C)[C@H](CC[C@@H]6[C@@H]5CC[C@]5(C)[C@@H](C7=CC(=O)OC7)CC[C@]65O)C4)O[C@@H]3C)O[C@@H]2C)C[C@@H](O)[C@@H]1O` [Decoy469], the Type result was “Inactive (Decoy)”.
For the molecule `C[C@@H]1O[C@H](O[C@@H]2CC[C@]3(C)[C@H](CC[C@@H]4[C@@H]3CC[C@@]3(C)[C@@H](C5=CC(=O)OC5)CC[C@]43O)C2)C[C@H](O)[C@@H]1O[C@@H]1C[C@H](O)[C@H](O[C@H]2C[C@@H](O)[C@H](O)[C@@H](C)O2)[C@H](C)O1` [Decoy470], the Type entry is listed as “Inactive (Decoy)”.
Turning to `C[C@@H]1O[C@@H](O[C@H]2[C@H](O[C@@H]3CC[C@@H]4C(=CC[C@@H]5[C@@]4(C)C(=O)C[C@]4(C)[C@H]([C@@]6(C)O[C@@H](C(C)(C)O)CC6=O)[C@H](O)C[C@@]54C)C3(C)C)O[C@H](CO)[C@@H](O)[C@@H]2O)[C@H](O)[C@H](O)[C@H]1O` [Decoy471], the Type entry is given as “Inactive (Decoy)”.
Turning to `C[C@@H]1O[C@@H](O[C@H]2[C@H](O[C@@H]3CC[C@@H]4C(=CC[C@@H]5[C@@]4(C)C(=O)C[C@]4(C)[C@H]([C@@]6(C)O[C@H](C(C)(C)O)CC6=O)[C@H](O)C[C@@]54C)C3(C)C)O[C@H](CO)[C@@H](O)[C@@H]2O)[C@H](O)[C@H](O)[C@H]1O` [Decoy472], the Type entry is given as “Inactive (Decoy)”.
On to `CCOC(=O)c1ccc(NC(=O)CSc2nnc(CNC(=O)COc3ccccc3)n2-c2cccc(C)c2)cc1` [Decoy473], for which the Type result is reported as “Inactive (Decoy)”.
For `COc1cc(-c2nnc(SCC(=O)N/N=C/c3cccc(O)c3)n2-c2ccccc2)cc(OC)c1OC` [Decoy474], the Type result is listed as “Inactive (Decoy)”.
With `CC(=O)O[C@@H]1[C@@H](O)[C@@H](O[C@@H](C/N=C/c2c(O)cc(O)c3ccccc23)[C@@H](CO)O[C@H](O)C/N=C/c2c(O)cc(O)c3ccccc23)O[C@@H](CO)[C@H]1O` [Decoy475], the Type result is on record as “Inactive (Decoy)”.
As to `CCCSc1nnc(/N=C(\O)CSc2nnc(N/N=C/c3c(C)nn(C(C)C)c3C)n2N)s1` [Decoy476], the Type entry is listed as “Inactive (Decoy)”.
Regarding `CCNC(=O)COc1ccc(NC(=O)c2cc(S(=O)(=O)NCc3ccco3)ccc2C)cc1` [Decoy477], the Type result is “Inactive (Decoy)”.
Consider `CCN(CC)S(=O)(=O)c1cc(NC(=O)CSc2nnc(C(F)(F)F)n2N)ccc1C` [Decoy478], for which the Type result is given as “Inactive (Decoy)”.
With `CCN[C@H](c1cc(Br)ccc1Cl)c1cc(Br)ccc1Br` [Decoy479], the Type entry is recorded as “Inactive (Decoy)”.
As for `COc1ccc(S(=O)(=O)N(CC(=O)Nc2ccccc2C(=O)NCc2ccco2)c2ccc(F)cc2)cc1OC` [Decoy480], the Type result is reported as “Inactive (Decoy)”.
`COC(=O)CNC(=O)C[C@@](C)(O)CC(=O)O[C@H]1[C@@H](O)C[C@@]2(C)C3=C(CC[C@H]2C1(C)C)[C@@]1(C)CC[C@H]([C@H](CO)CC[C@H](O)C(C)(C)O)[C@]1(C)[C@@H](O)C3` [Decoy481]: the Type entry was “Inactive (Decoy)”.
Regarding `CCOC(=O)c1sc(NC(=O)CCCS(=O)(=O)c2nc(-c3ccccc3OC)cc(C(F)(F)F)n2)c(C(N)=O)c1C` [Decoy482], the Type entry is “Inactive (Decoy)”.
